Data: patent US20220323406A1, “METHODS AND COMPOSITIONS FOR DIFFERENTIATING STEM CELLS” (Massachusetts Institute of Technology, priority 2019, published 2022)

How the values were obtained:
Conditions in all cases: primary screen
[1] = system: ENR+CD organoids (ISC to Paneth cell differentiation); experiment: Primary screen: CCh-stimulated lysozyme secretion LYZ.S, 2.5-D 384-well ENR+CD organoid differentiation; assay type: cell-based, mouse
Excerpt: (§1) High-throughput screening.

[2] = system: ENR+CD organoids; experiment: Primary screen: ATP (CellTiter-Glo 3D, CTG) cell number/viability, 2.5-D 384-well ENR+CD organoids;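 further: compounds given at plating and again on day 3 over a 6-day differentiation from ENR+CV stem-cell-enriched precursors, ATP measured on day 6, plate median as control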
[3] = system: ENR+CD organoids (ISC to Paneth cell differentiation); experiment: Primary screen: basal (non-stimulated) lysozyme secretion LYZ.NS, 2.5-D 384-well ENR+CD organoid differentiation; assay type: cell-based, mouse
Excerpt: as §1

Structure (SMILES)	Dose.FC.LYZ.S ([1]; dose 0.08 uM) [log2 fold change]	Dose.FC.LYZ.S ([1]; dose 0.40 uM) [log2 fold change]	Dose.FC.LYZ.S ([1]; dose 2.00 uM) [log2 fold change]	Dose.FC.LYZ.S ([1]; dose 10.00 uM) [log2 fold change]	Dose.FC.CTG ([2]; dose 0.08 uM) [log2 fold change]	Dose.FC.CTG ([2]; dose 0.40 uM) [log2 fold change]	Dose.FC.CTG ([2]; dose 2.00 uM) [log2 fold change]	Dose.FC.CTG ([2]; dose 10.00 uM) [log2 fold change]	Dose.FC.LYZ.NS ([3]; dose 0.08 uM) [log2 fold change]	Z.LYZ.NS (standard z score) ([3]; dose 0.08 uM)	Dose.FC.LYZ.NS ([3]; dose 0.40 uM) [log2 fold change]	Z.LYZ.NS (standard z score) ([3]; dose 0.40 uM)	Dose.FC.LYZ.NS ([3]; dose 2.00 uM) [log2 fold change]	Z.LYZ.NS (standard z score) ([3]; dose 2.00 uM)	Dose.FC.LYZ.NS ([3]; dose 10.00 uM) [log2 fold change]	Z.LYZ.NS (standard z score) ([3]; dose 10.00 uM)	Z.CTG (standard z score) ([2]; dose 0.08 uM)	Z.CTG (standard z score) ([2]; dose 0.40 uM)	Z.CTG (standard z score) ([2]; dose 2.00 uM)	Z.CTG (standard z score) ([2]; dose 10.00 uM)
COc1cc(N2CCC(N3CCN(C)CC3)CC2)ccc1Nc1ncc(Cl)c(Nc2ccccc2P(C)(C)=O)n1 [AP26113]	0.109	−0.038	−0.244	−0.343	−0.054	0.061	−0.558	−1.680	−0.013	−0.116	−0.062	−0.541	−0.196	−1.706	−0.272	−2.370				
O=C1NC(=O)/C(=C/c2ccc(-c3ccc(F)cc3O)o2)S1 [AS-252424]	0.072	−0.008	−0.074	−0.022	0.139	−0.074	−0.359	−0.204	0.070	0.609	−0.042	−0.368	−0.080	−0.695	−0.077	−0.671	0.333	−0.176	−0.858	−0.487
Cc1cc2c(C(C)C)c(O)c(O)c(C=O)c2c(O)c1-c1c(C)cc2c(C(C)C)c(O)c(O)c(C=O)c2c1O [AT101]	0.004	−0.013	−0.085	−0.061	−0.198	0.019	−0.216	−0.056	−0.049	−0.426	−0.068	−0.592	−0.036	−0.311	−0.052	−0.452				
CCNC(=O)c1noc(-c2cc(C(C)C)c(O)cc2O)c1-c1ccc(CN2CCOCC2)cc1 [AUY922 (NVP-AUY922)]	−0.209	−0.184	−0.216	−0.214	−1.185	−1.343	−1.137	−1.270	−0.144	−1.251	−0.154	−1.343	−0.138	−1.200	−0.153	−1.330	−2.830	−3.208	−2.715	−3.032
C=CC(=O)Nc1cccc(Nc2nc(Nc3ccc(OCCOC)cc3)ncc2F)c1 [AVL-292]	0.235	0.106	−0.206	−0.376	0.217	0.057	−0.058	−0.778	0.095	0.831	0.052	0.451	−0.112	−0.979	−0.213	−1.858	0.518	0.135	−0.138	−1.859
C[C@@H]1COCCN1c1cc(C2(S(C)(=O)=O)CC2)nc(-c2cccc3[nH]ccc23)n1 [AZ20]	−0.038	−0.236	−0.373	−0.329	−0.210	−0.218	−1.054	−0.573	0.042	0.365	−0.140	−1.222	−0.215	−1.868	−0.261	−2.271	−0.500	−0.521	−2.519	−1.368
COc1cc(N2CCN(C)CC2)ccc1Nc1nccc(-c2cn(C)c3cnccc23)n1 [AZ191]	0.143	0.199	0.097	−0.200	0.292	0.337	0.150	−0.533	0.128	1.111	0.082	0.717	0.058	0.507	−0.148	−1.289	0.697	0.804	0.358	−1.272
COc1cc(OC2CCN(C)CC2)ccc1Nc1ncc2c(n1)n(C1CCCC1)c(=O)n2C [AZ 3146]	0.049	−0.067	−0.130	−0.422	−0.130	−0.262	−0.369	−1.168	0.073	0.639	−0.038	−0.327	−0.079	−0.687	−0.281	−2.447	−0.310	−0.626	−0.881	−2.789
CC(=O)Nc1cccc2c1c(Sc1ccc(Cl)cc1)c(C)n2CC(=O)O [AZD1981]	0.023	0.191	0.014	0.070	0.400	0.285	0.099	0.238	0.009	0.081	0.001	0.008	0.001	0.011	0.024	0.205	0.955	0.681	0.236	0.570
COC1CCN(C(=O)c2cc(Cc3n[nH]c(=O)c4ccccc34)ccc2F)CC1 [AZD2461]	0.097	0.015	−0.100	−0.224	0.073	−0.040	−0.232	−0.336	0.038	0.334	−0.038	−0.327	−0.074	−0.641	−0.172	−1.497	0.174	−0.095	−0.555	−0.803
